Laboratory results taken from patent publication US9272038B2, “Wound care formulation” (Innovation Ulster Limited, priority 2007, dated 2016).
Where a name gives a salt, the structure may show the parent alone.

Columns and labels:
Assay type in all cases: physicochemical
[1] = pH measurement of PVA-borate hydrogels (spear-tip electrode); conditions: 10% w/w PVA and 2.5% w/w borax hydrogel, n=4
Description: PVA-borate hydrogels (10% w/w PVA and 2.5% w/w borax) were prepared by combining equal volumes of separate stock solutions (20% w/w PVA and 5% w/w borax) prepared in de-ionised water. A homogenous gel was formed upon heating the mixture to 80° C. for approximately two hours, with periodic stirring. Gels were stored for 48 hours at room temperature to allow complete gelation prior to evaluation. Excipients, such as lidocaine HCL and D-mannitol, were added to the sodium tetraborate solution prior to addition to the PVA solution. The pH of gel formulations were recorded using a Sensorex® spear-tip electrode ([…], Sensys Ltd, Stevenage), which is designed to penetrate and measure the pH of semi-solid systems. Measurements of pH in borax solutions (5% w/v), following successive additions of D-mannitol (5.0×10^-3 mole), were recorded using the same electrode apparatus. Additionally, the effect of the polyols on the concentration of free borate ions within the hydrogel was estimated using changes in the pH of the gel after addition of a defined polyol. Standard hydrogels of 10% w/w PVA and 2.5% borax were produced containing each polyol at a concentration of 0.1 Molar. The pH of each gel was measured upon equilibration, with each measurement performed for four samples (n=4). Similarly, the changes in gel hardness arising from variations in free borate induced by polyol addition were determined using texture profile analysis, as described above. As before, four replicate measurements were made in each case at ambient temperature (n=4).

[2] = Texture profile analysis (hardness) of PVA-borate hydrogels; conditions: for Hardness (N): 10% w/w PVA and 2.5% w/w borax hydrogel with 0.1 M polyol, n=4; for effect on hardness compared to the hydrogel containing no polyol: hydrogel loaded with 0.1 Molar polyol
Description: Evaluation of the mechanical properties of PVA-borate hydrogels was performed using a TA-XT2 Texture Analyzer (Stable Micro Systems, […], UK) in texture profile analysis (TPA) mode. Formulations were placed in poly(propylene) containers (44 mm diameter×55 mm depth) (Sarstedt©, Wexford, Republic of Ireland) with any air bubbles in the gels removed upon standing at ambient temperature (>6.0 h) prior to investigation. The tubular probe (10.0 mm in diameter and 150.0 mm in length) was compressed twice into each sample to a depth of 15.0 mm at a rate of 10.0 mm s^-1, with a 15.0 s delay between compressions. Four replicate measurements were made in each case at ambient temperature. Hardness and compressibility, which have previously been used to define the mechanical properties of hydrogels were derived from the force-time plots produced by the TPA analysis^30. Those skilled in the art of TPA, will be familiar with production of said force-time plots and derivation of hardness and compressibility data from aforementioned data. Hardness, the force required to achieve a given deformation, was determined by the force maximum of the first positive curve of the force-time plot^30. Compressibility, the work required to deform the product during the first compression of the probe was determined by the area under the first positive curve of the force-time plot^30. Additionally, the effect of the polyols on the concentration of free borate ions within the hydrogel was estimated using changes in the pH of the gel after addition of a defined polyol. Standard hydrogels of 10% w/w PVA and 2.5% borax were produced containing each polyol at a concentration of 0.1 Molar. The pH of each gel was measured upon equilibration, with each measurement performed for four samples (n=4). Similarly, the changes in gel hardness arising from variations in free borate induced by polyol addition were determined using texture profile analysis, as described above. As before, four replicate measurements were made in each case at ambient temperature (n=4).

[3] = Comparison of polyol affinity for borate ions by direct titrimetry; conditions: polyol added to 100.0 ml of 5% w/v Borax solution; calculated from pH with Equation 3
Description: The following polyols were used in this investigation; maltitol, dulcitol, D-mannitol, D-sorbitol, xylitol, meso-erythritol, 1,2-propanediol, glycerol. Additionally, the affect of propan-2-ol was also investigated. The affinity of each polyol for borate was estimated using direct titrimetry and by analysis of gel characteristics. In the former method, incremental additions (1.0 ml) of a 0.5 M solution of polyol was added to 100.0 ml of 5% w/v Borax solution and the pH recorded. […] 3; 10^(pH-pKa)[H3BO3]0═[B(OH)4^−]f (3) where, [H3BO3]0 is the concentration of boric acid, [B(OH)4^−]f is the concentration of free borate ions and pKa is the pKa of boric acid (derived from the initial pH of the 5% w/v borax solution). […] These assumptions are consistent with work of other researchers^27,28.

[4] = pHp of lidocaine hydrochloride within PVA-Borate hydrogels, derived experimentally
Description: […]. The determination of the pHp in the aqueous environment is determined using the equation (1), whilst the determination of the pHp within the gel environment is derived experimentally. […].

| Compound | pH of hydrogel with 0.1 M polyol [1] | Hardness (N) [2] [N] | % reduction in free borate/0.0005 moles [3] [%] | effect on hardness compared to the hydrogel containing no polyol [2] | pHp (Gel) ([4]; 1% w/v lidocaine HCl in PVA-Borate hydrogel) | pHp (Gel) ([4]; 2% w/v lidocaine HCl in PVA-Borate hydrogel) | pHp (Gel) ([4]; 3% w/v lidocaine HCl in PVA-Borate hydrogel) | pHp (Gel) ([4]; 4% w/v lidocaine HCl in PVA-Borate hydrogel, hydrochloride) | pHp (Gel) ([4]; 4% w/v lidocaine HCl in PVA-Borate hydrogel, listed as lidocaine hydrochloride monohydrate, hydrochloride) |
| --- | --- | --- | --- | --- | --- | --- | --- | --- | --- |
| CC(O)CO (centres unmarked) [1,2-propandiol] | 8.39 ± 0.02 | 14.10 ± 0.5 | 2.08 ± 0.78 | no affect on the hardness of the hydrogel |  |  |  |  |  |
| OC[C@@H](O)[C@@H](O)[C@H](O)[C@H](O)CO [D-mannitol] | 7.74 ± 0.023 | 4.07 ± 0.25 | 7.47 ± 1.10 |  |  |  |  |  |  |
| OC[C@@H](O)[C@@H](O)[C@H](O)[C@@H](O)CO [D-sorbitol] | 7.79 ± 0.02 | 4.37 ± 0.31 | 6.87 ± 1.25 |  |  |  |  |  |  |
| OC[C@@H](O)[C@H](O)[C@H](O)[C@@H](O)CO [Dulitol] | 7.67 ± 0.015 | 3.87 ± 0.38 | 7.46 ± 1.41 |  |  |  |  |  |  |
| CCN(CC)CC(=O)Nc1c(C)cccc1C [Lidocaine HCl, lidocaine hydrochloride] |  |  |  |  | ≧8.15 | ≧7.75 | ≧7.45 | ≧7.26 | > 7.26 |

Now from value to compound, other results behind:

| pH of hydrogel with 0.1 M polyol [1] | Hardness (N) [2] [N] | % reduction in free borate/0.0005 moles [3] [%] | Compound | effect on hardness compared to the hydrogel containing no polyol [2] | pHp (Gel) ([4]; 1% w/v lidocaine HCl in PVA-Borate hydrogel) | pHp (Gel) ([4]; 2% w/v lidocaine HCl in PVA-Borate hydrogel) | pHp (Gel) ([4]; 3% w/v lidocaine HCl in PVA-Borate hydrogel) | pHp (Gel) ([4]; 4% w/v lidocaine HCl in PVA-Borate hydrogel, hydrochloride) | pHp (Gel) ([4]; 4% w/v lidocaine HCl in PVA-Borate hydrogel, listed as lidocaine hydrochloride monohydrate, hydrochloride) |
| --- | --- | --- | --- | --- | --- | --- | --- | --- | --- |
| 7.95 ± 0.038 | 5.18 ± 0.31 | 4.97 ± 1.21 | OC[C@@H](O)[C@H](O)[C@@H](O)CO [Xylitol] |  |  |  |  |  |  |
| 8.17 +/− 0.022 |  | 3.36 ± 1.34 | OCC(O)CO [Glycerol] |  |  |  |  |  |  |
| 8.393 +/− 0.012 |  | 0.51 ± 1.09 | CC(C)O [Propan-2-ol] | no affect on the hardness of the hydrogel |  |  |  |  |  |
| 8.10 ± 0.01 | 9.01 ± 0.45 | 4.97 ± 1.17 | OC[C@@H](O)[C@@H](O)CO [Meso-erythritol] |  |  |  |  |  |  |
| 7.63 ± 0.019 | 2.79 ± 0.14 | 7.25 ± 1.59 | Malititol |  |  |  |  |  |  |
